Like-named read-outs stand apart in the source and are kept apart here. Starred links: 1 amine or outer side, 2 acyl side, 3 side chain; linkers in the order of their positions; H or OH if unused. Residues, ends and D or L forms follow the SMILES beside them. Groups on a side chain read outwards from the residue. *: point of attachment. TTDA(Palmitoyl) = CCCCCCCCCCCCCCCC(=O)NCCCOCCOCCOCCCN*; γGlu = O=C(O)[C@H](CCC(=O)[*:2])N[*:1]; Palmitoyl = CCCCCCCCCCCCCCCC(=O)*; Suc = O=C(CCC(=O)[*:2])[*:1]
How the values were obtained:
[1] = Adipose tissue and liver weights in DIO mice at the end of the experiment; type: in vivo, C57BL/6 mice; details: 5 mg/kg SC twice a day, 2 weeks, n = 10, mean ± SEM
Description: From 8 weeks of age, the mice were fed in house made high-fat (HF) diet to induce obesity. […] After twelve weeks of HF-diet feeding, two weeks of SC administration of lipidized PrRP analogs was initiated while the mice were kept on the HF diet. The following experimental groups were established: […] Food intake and BW were monitored daily during the dosing period. At the end of the experiment, the mice were sacrificed by decapitation. The trunk blood was collected, and the blood plasma was separated and stored at -20°C. The visceral adipose tissues (VAT) (from abdominal part), subcutaneous adipose tissues (SCAT) (all adipose tissue depots under the skin), perirenal adipose tissues, interscapular brown adipose tissues (BAT), and livers of all of the mice were dissected, weighed, flash-frozen in liquid nitrogen, and stored at -70°C for later extraction of RNA.

[2] = target: T1, GPR10 (Homo sapiens, UniProt P49683); test: Beta-lactamase-dependent FRET assay (bla reporter gene) in CHO-K1 cells overexpressing GPR10; type: cell-based; set-up: expressed in transfected cells; host or cells: CHO-K1
T1 sequence (P49683 1-370): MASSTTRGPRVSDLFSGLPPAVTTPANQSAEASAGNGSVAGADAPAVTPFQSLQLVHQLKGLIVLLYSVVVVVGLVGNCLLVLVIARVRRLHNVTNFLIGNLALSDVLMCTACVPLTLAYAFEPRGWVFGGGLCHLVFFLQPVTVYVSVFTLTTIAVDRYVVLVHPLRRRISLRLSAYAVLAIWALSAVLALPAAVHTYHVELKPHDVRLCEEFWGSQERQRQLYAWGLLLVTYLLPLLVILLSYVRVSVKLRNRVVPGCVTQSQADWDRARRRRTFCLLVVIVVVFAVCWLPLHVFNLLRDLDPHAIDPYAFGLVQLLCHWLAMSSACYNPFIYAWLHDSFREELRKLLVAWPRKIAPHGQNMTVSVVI
Description: CHO-K1 cells overexpressing GPR10 were plated at 40,000 cells/well in 128 μl of assay medium (DMEM containing 10% dialyzed FBS, 0.1 mM NEAA, 25 mM HEPES, 1% penicillin/streptomycin, and 2 mM L-glutamine) in a 96-well plate and were incubated for 20 h at 37°C/5% CO2. The assay was performed according to the manufacturer's protocol.
The results from the lactamase assay were analyzed using nonlinear regression by log agonist vs. response using GraphPad software.

[3] = tested on: c-Fos; test: Fos immunohistochemistry in mouse brain; type: in vivo; details: overnight fasted mice, 5 mg/kg SC, 90 min after injection, n = 4, vs saline
Description: Ninety minutes after injection, the mice were deeply anesthetized with sodium pentobarbital (50 mg/kg, intraperitoneally) and perfused transcardially. The brains were withdrawn, and c-Fos immunoreactivity was determined as described in [19, 20].
For the immunohistochemical study, the c-Fos rabbit monoclonal antibody (Cell Signaling Technology, #2250S) detecting total level of endogenous c-Fos protein was used in final dilution (1:2000) for 48 h (4°C).

[4] = average of the single experiments, read-out: Activation of bla reporter gene in GPR10 overexpressing cells, EC50, AVERAGE

Row | SMILES | Liver weight [1] [g] | Perirenal AT [1] | Total AT [1] | EC50 [2, 4] [pM] | c-Fos immunoreactivity in Arc, PVN and DMN [3] | EC50 ([2]; CHO-K1 cells, mean ± SEM of at least three experiments, SEM, read-out: Activation of bla reporter gene in GPR10 overexpressing cells, EC50) [pM]
1 | CCCCCCCCCCCCCCCC(=O)NCCCOCCOCCOCCCNC(=O)CCC(=O)NCCCC[C@H](NC(=O)[C@@H](NC(=O)[C@H](CCC(=O)O)NC(=O)[C@H](CCSC)NC(=O)[C@H](CO)NC(=O)[C@H](Cc1c[nH]cn1)NC(=O)[C@H](CCCNC(=N)N)NC(=O)[C@H](Cc1c[nH]cn1)NC(=O)[C@@H](NC(=O)[C@H](CCCNC(=N)N)NC(=O)[C@@H](N)CO)[C@@H](C)O)[C@@H](C)CC)C(=O)N[C@H](C(=O)N1CCC[C@H]1C(=O)N[C@@H](CC(=O)O)C(=O)N[C@H](C(=O)N[C@@H](CC(N)=O)C(=O)N1CCC[C@H]1C(=O)N[C@@H](C)C(=O)N[C@@H](Cc1c[nH]c2ccccc12)C(=O)N[C@@H](Cc1ccc(O)cc1)C(=O)N[C@@H](C)C(=O)N[C@@H](CO)C(=O)N[C@@H](CCCNC(=N)N)C(=O)NCC(=O)N[C@H](C(=O)N[C@@H](CCCNC(=N)N)C(=O)N1CCC[C@H]1C(=O)N[C@H](C(=O)NCC(=O)N[C@@H](CCCNC(=N)N)C(=O)N[C@@H](Cc1ccccc1)C(N)=O)C(C)C)[C@@H](C)CC)[C@@H](C)CC)[C@@H](C)O [analog 2] (H-SRTHRHSMEIK([Suc-TTDA(Palmitoyl)])TPDINPAWYASRGIRPVGRF-NH2; N-terminus assumed) | 1.31 ± 0.06 | 2.73 ± 0.17 % of BW | 15.70 ± 0.53 % of BW | 83.5 |  | 
2 | CCCCCCCCCCCCCCCC(=O)N[C@@H](CCC(=O)NCCCC[C@H](NC(=O)[C@@H](NC(=O)[C@H](CCC(=O)O)NC(=O)[C@H](CCSC)NC(=O)[C@H](CO)NC(=O)[C@H](Cc1c[nH]cn1)NC(=O)[C@H](CCCNC(=N)N)NC(=O)[C@H](Cc1c[nH]cn1)NC(=O)[C@@H](NC(=O)[C@H](CCCNC(=N)N)NC(=O)[C@@H](N)CO)[C@@H](C)O)[C@@H](C)CC)C(=O)N[C@H](C(=O)N1CCC[C@H]1C(=O)N[C@@H](CC(=O)O)C(=O)N[C@H](C(=O)N[C@@H](CC(N)=O)C(=O)N1CCC[C@H]1C(=O)N[C@@H](C)C(=O)N[C@@H](Cc1c[nH]c2ccccc12)C(=O)N[C@@H](Cc1ccc(O)cc1)C(=O)N[C@@H](C)C(=O)N[C@@H](CO)C(=O)N[C@@H](CCCNC(=N)N)C(=O)NCC(=O)N[C@H](C(=O)N[C@@H](CCCNC(=N)N)C(=O)N1CCC[C@H]1C(=O)N[C@H](C(=O)NCC(=O)N[C@@H](CCCNC(=N)N)C(=O)N[C@@H](Cc1ccccc1)C(N)=O)C(C)C)[C@@H](C)CC)[C@@H](C)CC)[C@@H](C)O)C(=O)O [analog 1] (H-SRTHRHSMEIK([γGlu-Palmitoyl])TPDINPAWYASRGIRPVGRF-NH2; N-terminus assumed) | 1.27 ± 0.05 | 2.72 ± 0.11 % of BW | 14.59 ± 0.32 % of BW | 46.3 | significant increase | 
3 | CCCCCCCCCCCCCCCC(=O)NCCCOCCOCCOCCCNC(=O)CCC(=O)NCCCC[C@H](NC(=O)[C@@H](NC(=O)[C@H](CCC(=O)O)NC(=O)[C@H](CCSC)NC(=O)[C@H](CO)NC(=O)[C@H](Cc1c[nH]cn1)NC(=O)[C@H](CCCNC(=N)N)NC(=O)[C@H](Cc1c[nH]cn1)NC(=O)[C@@H](NC(=O)[C@H](CCCNC(=N)N)NC(=O)[C@H](CO)NC(=O)CCC(=O)NCCCOCCOCCOCCCNC(=O)CCCCCCCCCCCCCCC)[C@@H](C)O)[C@@H](C)CC)C(=O)N[C@H](C(=O)N1CCC[C@H]1C(=O)N[C@@H](CC(=O)O)C(=O)N[C@H](C(=O)N[C@@H](CC(N)=O)C(=O)N1CCC[C@H]1C(=O)N[C@@H](C)C(=O)N[C@@H](Cc1c[nH]c2ccccc12)C(=O)N[C@@H](Cc1ccc(O)cc1)C(=O)N[C@@H](C)C(=O)N[C@@H](CO)C(=O)N[C@@H](CCCNC(=N)N)C(=O)NCC(=O)N[C@H](C(=O)N[C@@H](CCCNC(=N)N)C(=O)N1CCC[C@H]1C(=O)N[C@H](C(=O)NCC(=O)N[C@@H](CCCNC(=N)N)C(=O)N[C@@H](Cc1ccccc1)C(N)=O)C(C)C)[C@@H](C)CC)[C@@H](C)CC)[C@@H](C)O [analog 3] ({TTDA(Palmitoyl)-Suc}-SRTHRHSMEIK([Suc-TTDA(Palmitoyl)])TPDINPAWYASRGIRPVGRF-NH2) | 1.58 ± 0.09 | 3.09 ± 0.16 % of BW | 16.13 ± 0.38 % of BW |  |  | 284 ± 54

Source: article PMC5562305, “Impact of novel palmitoylated prolactin-releasing peptide analogs on metabolic changes in mice with diet-induced obesity” (PLoS ONE, 2017)
